According to the NIST ThermoML archive (doi:10.1021/acs.jced.6b00640):
Numbers after ± are expanded uncertainties.

Test: xn = mol fraction of the nth substance listed
Conditions: 100 kPa, Liquid; for viscosity: Concentric cylinders viscometry; for mass density: Vibrating tube method

## CCOC(=O)CCC(=O)OCC [diethyl butanedioate] + CCCC(=O)OCC
288.15 K, x2 = 0.0999
  viscosity: 2.784 ± 0.033 mPa·s
  mass density: 1032.25 ± 0.83 kg/m3
288.15 K, x2 = 0.2
  viscosity: 2.407 ± 0.029 mPa·s
  mass density: 1018.97 ± 0.83 kg/m3
288.15 K, x2 = 0.3003
  viscosity: 2.07 ± 0.025 mPa·s
  mass density: 1004.96 ± 0.83 kg/m3
288.15 K, x2 = 0.3999
  viscosity: 1.782 ± 0.022 mPa·s
  mass density: 990.34 ± 0.83 kg/m3
288.15 K, x2 = 0.5
  viscosity: 1.537 ± 0.019 mPa·s
  mass density: 974.86 ± 0.83 kg/m3
288.15 K, x2 = 0.5997
  viscosity: 1.334 ± 0.017 mPa·s
  mass density: 958.7 ± 0.83 kg/m3
288.15 K, x2 = 0.7
  viscosity: 1.162 ± 0.015 mPa·s
  mass density: 941.56 ± 0.83 kg/m3
288.15 K, x2 = 0.7999
  viscosity: 1.015 ± 0.013 mPa·s
  mass density: 923.5 ± 0.83 kg/m3
288.15 K, x2 = 0.8999
  viscosity: 0.8744 ± 0.011 mPa·s
  mass density: 904.39 ± 0.83 kg/m3
293.15 K, x2 = 0.0999
  viscosity: 2.464 ± 0.029 mPa·s
  mass density: 1027.04 ± 0.83 kg/m3
293.15 K, x2 = 0.2
  viscosity: 2.146 ± 0.026 mPa·s
  mass density: 1013.76 ± 0.83 kg/m3
293.15 K, x2 = 0.3003
  viscosity: 1.859 ± 0.023 mPa·s
  mass density: 999.74 ± 0.83 kg/m3
293.15 K, x2 = 0.3999
  viscosity: 1.613 ± 0.02 mPa·s
  mass density: 985.12 ± 0.83 kg/m3
293.15 K, x2 = 0.5
  viscosity: 1.402 ± 0.017 mPa·s
  mass density: 969.64 ± 0.83 kg/m3
293.15 K, x2 = 0.5997
  viscosity: 1.225 ± 0.015 mPa·s
  mass density: 953.46 ± 0.83 kg/m3
293.15 K, x2 = 0.7
  viscosity: 1.077 ± 0.014 mPa·s
  mass density: 936.32 ± 0.83 kg/m3
293.15 K, x2 = 0.7999
  viscosity: 0.9435 ± 0.012 mPa·s
  mass density: 918.25 ± 0.83 kg/m3
293.15 K, x2 = 0.8999
  viscosity: 0.8176 ± 0.011 mPa·s
  mass density: 899.13 ± 0.83 kg/m3
298.15 K, x2 = 0.0999
  viscosity: 2.202 ± 0.026 mPa·s
  mass density: 1021.84 ± 0.83 kg/m3
298.15 K, x2 = 0.2
  viscosity: 1.932 ± 0.023 mPa·s
  mass density: 1008.55 ± 0.83 kg/m3
298.15 K, x2 = 0.3003
  viscosity: 1.684 ± 0.021 mPa·s
  mass density: 994.54 ± 0.83 kg/m3
298.15 K, x2 = 0.3999
  viscosity: 1.471 ± 0.018 mPa·s
  mass density: 979.9 ± 0.83 kg/m3
298.15 K, x2 = 0.5
  viscosity: 1.286 ± 0.016 mPa·s
  mass density: 964.41 ± 0.83 kg/m3
298.15 K, x2 = 0.5997
  viscosity: 1.131 ± 0.014 mPa·s
  mass density: 948.23 ± 0.83 kg/m3
298.15 K, x2 = 0.7
  viscosity: 1.002 ± 0.013 mPa·s
  mass density: 931.08 ± 0.83 kg/m3
298.15 K, x2 = 0.7999
  viscosity: 0.8815 ± 0.012 mPa·s
  mass density: 913 ± 0.83 kg/m3
298.15 K, x2 = 0.8999
  viscosity: 0.7679 ± 0.01 mPa·s
  mass density: 893.87 ± 0.83 kg/m3
303.15 K, x2 = 0.0999
  viscosity: 1.983 ± 0.024 mPa·s
  mass density: 1016.65 ± 0.83 kg/m3
303.15 K, x2 = 0.2
  viscosity: 1.749 ± 0.021 mPa·s
  mass density: 1003.35 ± 0.83 kg/m3
303.15 K, x2 = 0.3003
  viscosity: 1.535 ± 0.019 mPa·s
  mass density: 989.33 ± 0.83 kg/m3
303.15 K, x2 = 0.3999
  viscosity: 1.347 ± 0.017 mPa·s
  mass density: 974.68 ± 0.83 kg/m3
303.15 K, x2 = 0.5
  viscosity: 1.185 ± 0.015 mPa·s
  mass density: 959.18 ± 0.83 kg/m3
303.15 K, x2 = 0.5997
  viscosity: 1.048 ± 0.013 mPa·s
  mass density: 942.99 ± 0.83 kg/m3
303.15 K, x2 = 0.7
  viscosity: 0.9351 ± 0.012 mPa·s
  mass density: 925.83 ± 0.83 kg/m3
303.15 K, x2 = 0.7999
  viscosity: 0.8255 ± 0.011 mPa·s
  mass density: 907.74 ± 0.83 kg/m3
303.15 K, x2 = 0.8999
  viscosity: 0.7228 ± 0.0098 mPa·s
  mass density: 888.59 ± 0.83 kg/m3
308.15 K, x2 = 0.0999
  viscosity: 1.796 ± 0.022 mPa·s
  mass density: 1011.46 ± 0.83 kg/m3
308.15 K, x2 = 0.2
  viscosity: 1.593 ± 0.02 mPa·s
  mass density: 998.15 ± 0.83 kg/m3
308.15 K, x2 = 0.3003
  viscosity: 1.405 ± 0.017 mPa·s
  mass density: 984.12 ± 0.83 kg/m3
308.15 K, x2 = 0.3999
  viscosity: 1.239 ± 0.016 mPa·s
  mass density: 969.46 ± 0.83 kg/m3
308.15 K, x2 = 0.5
  viscosity: 1.096 ± 0.014 mPa·s
  mass density: 953.96 ± 0.83 kg/m3
308.15 K, x2 = 0.5997
  viscosity: 0.9742 ± 0.013 mPa·s
  mass density: 937.75 ± 0.83 kg/m3
308.15 K, x2 = 0.7
  viscosity: 0.8745 ± 0.011 mPa·s
  mass density: 920.58 ± 0.83 kg/m3
308.15 K, x2 = 0.7999
  viscosity: 0.7752 ± 0.01 mPa·s
  mass density: 902.47 ± 0.83 kg/m3
308.15 K, x2 = 0.8999
  viscosity: 0.6811 ± 0.0094 mPa·s
  mass density: 883.31 ± 0.83 kg/m3
313.15 K, x2 = 0.0999
  viscosity: 1.642 ± 0.02 mPa·s
  mass density: 1006.27 ± 0.83 kg/m3
313.15 K, x2 = 0.2
  viscosity: 1.465 ± 0.018 mPa·s
  mass density: 992.95 ± 0.83 kg/m3
313.15 K, x2 = 0.3003
  viscosity: 1.297 ± 0.016 mPa·s
  mass density: 978.91 ± 0.83 kg/m3
313.15 K, x2 = 0.3999
  viscosity: 1.149 ± 0.015 mPa·s
  mass density: 964.25 ± 0.83 kg/m3
313.15 K, x2 = 0.5
  viscosity: 1.019 ± 0.013 mPa·s
  mass density: 948.72 ± 0.83 kg/m3
313.15 K, x2 = 0.5997
  viscosity: 0.91 ± 0.012 mPa·s
  mass density: 932.5 ± 0.83 kg/m3
313.15 K, x2 = 0.7
  viscosity: 0.8216 ± 0.011 mPa·s
  mass density: 915.31 ± 0.83 kg/m3
313.15 K, x2 = 0.7999
  viscosity: 0.731 ± 0.0099 mPa·s
  mass density: 897.18 ± 0.83 kg/m3
313.15 K, x2 = 0.8999
  viscosity: 0.6451 ± 0.009 mPa·s
  mass density: 878 ± 0.83 kg/m3
318.15 K, x2 = 0.0999
  viscosity: 1.5 ± 0.018 mPa·s
  mass density: 1001.09 ± 0.83 kg/m3
318.15 K, x2 = 0.2
  viscosity: 1.341 ± 0.017 mPa·s
  mass density: 987.76 ± 0.83 kg/m3
318.15 K, x2 = 0.3003
  viscosity: 1.193 ± 0.015 mPa·s
  mass density: 973.7 ± 0.83 kg/m3
318.15 K, x2 = 0.3999
  viscosity: 1.061 ± 0.014 mPa·s
  mass density: 959.02 ± 0.83 kg/m3
318.15 K, x2 = 0.5
  viscosity: 0.9464 ± 0.012 mPa·s
  mass density: 943.48 ± 0.83 kg/m3
318.15 K, x2 = 0.5997
  viscosity: 0.8492 ± 0.011 mPa·s
  mass density: 927.25 ± 0.83 kg/m3
318.15 K, x2 = 0.7
  viscosity: 0.7706 ± 0.01 mPa·s
  mass density: 910.04 ± 0.83 kg/m3
318.15 K, x2 = 0.7999
  viscosity: 0.6883 ± 0.0095 mPa·s
  mass density: 891.89 ± 0.83 kg/m3
318.15 K, x2 = 0.8999
  viscosity: 0.6086 ± 0.0086 mPa·s
  mass density: 872.69 ± 0.83 kg/m3
323.15 K, x2 = 0.0999
  viscosity: 1.384 ± 0.017 mPa·s
  mass density: 995.9 ± 0.83 kg/m3
323.15 K, x2 = 0.2
  viscosity: 1.245 ± 0.016 mPa·s
  mass density: 982.56 ± 0.83 kg/m3
323.15 K, x2 = 0.3003
  viscosity: 1.113 ± 0.014 mPa·s
  mass density: 968.49 ± 0.83 kg/m3
323.15 K, x2 = 0.3999
  viscosity: 0.9951 ± 0.013 mPa·s
  mass density: 953.79 ± 0.83 kg/m3
323.15 K, x2 = 0.5
  viscosity: 0.8916 ± 0.012 mPa·s
  mass density: 938.24 ± 0.83 kg/m3
323.15 K, x2 = 0.5997
  viscosity: 0.7992 ± 0.011 mPa·s
  mass density: 921.98 ± 0.83 kg/m3
323.15 K, x2 = 0.7
  viscosity: 0.7302 ± 0.0099 mPa·s
  mass density: 904.75 ± 0.83 kg/m3
323.15 K, x2 = 0.7999
  viscosity: 0.6542 ± 0.0091 mPa·s
  mass density: 886.58 ± 0.83 kg/m3
323.15 K, x2 = 0.8999
  viscosity: 0.5785 ± 0.0083 mPa·s
  mass density: 867.36 ± 0.83 kg/m3
